Biological target: T1, NLRP3 (Mus musculus, UniProt Q8R4B8)
T1 construct: endogenous NLRP3 in lysates of LPS-primed BMDMs
Test: DARTS (pronase protection) in BMDM lysates at […]
Assay type: cell-based

T1 sequence (Q8R4B8 whole entry): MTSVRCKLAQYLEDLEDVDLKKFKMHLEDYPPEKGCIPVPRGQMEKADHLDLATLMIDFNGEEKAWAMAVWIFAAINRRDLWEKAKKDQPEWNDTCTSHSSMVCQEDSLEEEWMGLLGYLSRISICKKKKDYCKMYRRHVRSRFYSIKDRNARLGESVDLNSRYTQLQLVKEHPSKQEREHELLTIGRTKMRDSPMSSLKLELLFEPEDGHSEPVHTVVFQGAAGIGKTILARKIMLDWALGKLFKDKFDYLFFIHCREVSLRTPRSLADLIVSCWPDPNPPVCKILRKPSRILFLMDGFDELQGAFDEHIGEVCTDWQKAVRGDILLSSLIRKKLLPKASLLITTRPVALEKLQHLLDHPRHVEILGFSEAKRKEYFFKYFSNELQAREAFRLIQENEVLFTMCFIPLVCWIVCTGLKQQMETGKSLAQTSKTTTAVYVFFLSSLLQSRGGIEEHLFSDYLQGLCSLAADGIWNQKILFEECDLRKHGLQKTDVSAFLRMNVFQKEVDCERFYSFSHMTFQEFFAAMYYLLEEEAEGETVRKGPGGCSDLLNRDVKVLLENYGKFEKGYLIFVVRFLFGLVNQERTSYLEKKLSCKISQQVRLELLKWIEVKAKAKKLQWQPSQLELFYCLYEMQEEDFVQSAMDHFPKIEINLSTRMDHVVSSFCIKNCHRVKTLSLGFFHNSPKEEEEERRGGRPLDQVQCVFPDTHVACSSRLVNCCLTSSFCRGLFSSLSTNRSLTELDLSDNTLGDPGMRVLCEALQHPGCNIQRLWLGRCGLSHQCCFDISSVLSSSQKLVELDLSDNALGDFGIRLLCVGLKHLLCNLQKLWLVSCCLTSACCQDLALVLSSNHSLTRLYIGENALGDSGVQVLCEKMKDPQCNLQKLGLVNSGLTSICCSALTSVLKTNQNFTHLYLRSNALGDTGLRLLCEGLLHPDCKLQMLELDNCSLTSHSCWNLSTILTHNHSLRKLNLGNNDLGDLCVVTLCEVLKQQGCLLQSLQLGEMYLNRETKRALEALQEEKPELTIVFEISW

SMILES: CC1=C(CC/C(C)=C/CCC2=CC[C@H](C3=CC(=O)O[C@H]3O)O[C@H]2O)C(C)(C)CCC1 [manoalide]
- DARTS (pronase protection) in BMDM lysates at 10 and 50 μM: Pronase-mediated degradation of NLRP3 is reversed in dose-dependent manner by manoalide.

— publication PMC8888861, “Inhibition of the NLRP3 Inflammasome Activation by Manoalide Ameliorates Experimental Autoimmune Encephalomyelitis Pathogenesis” (Frontiers in Cell and Developmental Biology, 2022)
